Data as given in patent US9487529B2, “Macrocyclic compounds as ALK, FAK and JAK2 inhibitors” (Cephalon, Inc., priority 2011, dated 2016).
Where a name gives a salt, the structure may show the parent alone. Read-outs that look alike come from different tables or passages of the source.

Assays:
recombinant human FAK = target: T1, recombinant human FAK (Homo sapiens, UniProt Q05397); assay: FAK Enzyme Assay (TRF detection); assay type: biochemical; details: 10 μM ATP
T1 construct: purchased Invitrogen PV3832; host or cells: baculovirus expression system
T1 sequence (Q05397 whole entry): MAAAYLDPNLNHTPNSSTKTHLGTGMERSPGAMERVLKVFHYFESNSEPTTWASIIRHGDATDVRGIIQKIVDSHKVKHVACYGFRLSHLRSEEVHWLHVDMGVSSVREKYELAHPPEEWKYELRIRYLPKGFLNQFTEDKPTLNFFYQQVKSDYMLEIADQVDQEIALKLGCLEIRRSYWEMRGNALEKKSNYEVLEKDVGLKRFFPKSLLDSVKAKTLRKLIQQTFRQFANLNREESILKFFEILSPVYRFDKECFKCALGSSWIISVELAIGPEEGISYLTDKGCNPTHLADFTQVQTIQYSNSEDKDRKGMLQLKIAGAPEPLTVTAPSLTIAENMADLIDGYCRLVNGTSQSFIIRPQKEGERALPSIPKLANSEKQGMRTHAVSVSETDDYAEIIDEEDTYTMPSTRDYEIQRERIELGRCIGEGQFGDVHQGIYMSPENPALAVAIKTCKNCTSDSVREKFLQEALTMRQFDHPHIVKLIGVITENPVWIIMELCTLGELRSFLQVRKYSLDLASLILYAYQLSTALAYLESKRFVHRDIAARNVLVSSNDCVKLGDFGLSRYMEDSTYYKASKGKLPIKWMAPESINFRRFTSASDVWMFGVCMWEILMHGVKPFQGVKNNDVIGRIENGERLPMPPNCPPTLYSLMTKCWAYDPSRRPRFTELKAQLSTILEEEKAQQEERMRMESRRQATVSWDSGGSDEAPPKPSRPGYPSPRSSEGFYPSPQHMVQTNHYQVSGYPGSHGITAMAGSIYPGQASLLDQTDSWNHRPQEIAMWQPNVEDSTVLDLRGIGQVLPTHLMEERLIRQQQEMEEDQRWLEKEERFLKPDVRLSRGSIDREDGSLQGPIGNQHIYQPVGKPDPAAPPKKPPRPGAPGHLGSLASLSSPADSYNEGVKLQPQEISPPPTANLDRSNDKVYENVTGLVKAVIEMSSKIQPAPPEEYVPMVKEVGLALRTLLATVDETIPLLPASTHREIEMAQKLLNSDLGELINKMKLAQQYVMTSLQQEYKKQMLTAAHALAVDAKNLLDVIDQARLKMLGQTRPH
Protocol: Example compounds were tested for their ability to inhibit the kinase activity of baculovirus-expressed recombinant human FAK using the TRF detection system as described above for JAK2. IC50 runs were performed in 96-well Costar high binding plates (#3922). The plates were coated first with 100 μL/well of 10 μg/mL neutravidin in TBS at 37° C. for 2 h, followed by 100 μL/well of 1 μg/mL 15-mer peptide substrate (biotinyl-amino-hexanoyl-EQEDEPEGDYFEWLE-amide) at 37° C. for another hour. The FAK assay mixture (total volume=100 μL/well) consisting of 20 mM HEPES, pH 7.2, 10 μM ATP, 5 mM MgCl2, 0.5 mM DTT, 0.1% BSA, and test compound (diluted in DMSO; 2.5% DMSO final in assay) was then added to the assay plate. Enzyme (10 ng/mL FAK, Invitrogen #PV3832) was added and the reaction was allowed to proceed at room temperature for 30 minutes. Detection of the phosphorylated product was performed by adding 100 μL/well of Eu—N1 labeled PY100 antibody (diluted 1:75000 in antibody dilution buffer). Samples were incubated at room temperature for 1 hour, followed by addition of 100 μL enhancement solution. Plates were agitated for 10 minutes and fluorescence of the resulting solution measured using the PerkinElmer EnVision™ 2102 (or 2104) multi-label plate reader.
(§1) Data analysis was performed using ActivityBase (IDBS, Guilford, UK). IC50 values were calculated by plotting percent inhibition versus log10 of the concentration of compound and fitting to the nonlinear regression sigmoidal dose-response (variable slope) equation in XLFit (IDBS, Guilford, UK).

[1] = target: T2, baculovirus-expressed ALK (Homo sapiens, UniProt Q9UM73); assay: ALK Kinase Assay (ELISA/TRF); assay type: biochemical; details: 1 μM ATP (Km level)
T2 construct: host or cells: baculovirus expression system
T2 sequence (Q9UM73 19-1620): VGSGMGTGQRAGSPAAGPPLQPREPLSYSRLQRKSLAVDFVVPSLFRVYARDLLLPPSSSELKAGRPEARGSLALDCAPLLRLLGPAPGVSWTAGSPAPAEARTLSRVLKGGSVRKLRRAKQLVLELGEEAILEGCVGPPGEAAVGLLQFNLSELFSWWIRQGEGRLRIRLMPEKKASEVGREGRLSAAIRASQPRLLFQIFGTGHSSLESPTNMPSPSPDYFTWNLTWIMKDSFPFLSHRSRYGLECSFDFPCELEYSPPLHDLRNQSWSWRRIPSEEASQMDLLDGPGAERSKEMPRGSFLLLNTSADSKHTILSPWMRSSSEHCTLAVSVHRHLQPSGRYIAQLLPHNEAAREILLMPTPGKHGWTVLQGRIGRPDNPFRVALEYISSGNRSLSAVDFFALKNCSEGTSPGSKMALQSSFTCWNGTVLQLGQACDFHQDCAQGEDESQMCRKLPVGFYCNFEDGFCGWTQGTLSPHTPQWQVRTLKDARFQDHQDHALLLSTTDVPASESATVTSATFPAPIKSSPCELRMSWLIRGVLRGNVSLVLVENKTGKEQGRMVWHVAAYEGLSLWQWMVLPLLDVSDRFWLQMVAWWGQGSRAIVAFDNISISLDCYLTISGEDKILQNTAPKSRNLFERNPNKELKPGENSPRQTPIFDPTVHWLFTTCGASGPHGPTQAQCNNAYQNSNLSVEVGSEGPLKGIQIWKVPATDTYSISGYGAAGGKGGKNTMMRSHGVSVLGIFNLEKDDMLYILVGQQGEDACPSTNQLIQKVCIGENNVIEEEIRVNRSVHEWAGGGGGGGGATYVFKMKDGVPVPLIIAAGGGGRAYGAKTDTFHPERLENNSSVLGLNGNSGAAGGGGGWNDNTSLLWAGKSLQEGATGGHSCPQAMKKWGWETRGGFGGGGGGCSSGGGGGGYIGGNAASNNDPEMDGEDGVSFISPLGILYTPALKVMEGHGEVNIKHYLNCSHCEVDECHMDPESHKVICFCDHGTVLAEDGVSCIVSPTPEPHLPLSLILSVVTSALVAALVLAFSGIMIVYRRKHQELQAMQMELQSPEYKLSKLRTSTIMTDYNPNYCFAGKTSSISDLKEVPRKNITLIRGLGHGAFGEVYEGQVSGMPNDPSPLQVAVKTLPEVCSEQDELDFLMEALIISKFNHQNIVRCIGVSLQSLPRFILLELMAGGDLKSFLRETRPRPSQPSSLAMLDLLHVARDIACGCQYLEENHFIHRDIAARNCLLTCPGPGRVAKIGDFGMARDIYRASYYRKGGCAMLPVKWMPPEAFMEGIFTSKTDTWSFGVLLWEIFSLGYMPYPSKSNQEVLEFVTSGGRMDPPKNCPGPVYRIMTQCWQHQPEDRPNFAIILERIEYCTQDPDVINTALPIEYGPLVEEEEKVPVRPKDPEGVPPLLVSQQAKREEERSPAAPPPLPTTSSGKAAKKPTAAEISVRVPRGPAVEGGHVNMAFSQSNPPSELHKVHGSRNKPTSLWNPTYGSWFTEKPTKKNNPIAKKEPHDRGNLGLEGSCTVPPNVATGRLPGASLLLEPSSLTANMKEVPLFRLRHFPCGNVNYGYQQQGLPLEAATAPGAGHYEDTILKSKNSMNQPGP
Protocol: Briefly, each 96-well plate was coated with 100 μL/well of 10 μg/mL substrate (GST-PLC-γ) in Tris-buffered saline (TBS). […] The reaction was initiated by adding enzyme (30 ng/mL ALK) and was allowed to proceed at 37° C. for 15 minutes. Detection of the phosphorylated product was performed by adding 100 μL/well of Eu—N1 labeled PT66 antibody (Perkin Elmer #AD0041). […] Data analysis was performed using ActivityBase (IDBS, Guilford, UK). IC50 values were calculated by plotting percent inhibition versus log10 of the concentration of compound and fitting to the nonlinear regression sigmoidal dose-response (variable slope) equation in XLFit (IDBS, Guilford, UK).

[2] = cc_pd bond, CH3CN, 120.0 °C
[3] = target: T3, human insulin receptor cytoplasmic domain (βIRCD) (Homo sapiens, UniProt P06213); assay: Insulin Receptor Kinase Assay (TRF); assay type: biochemical; details: 20 μM ATP, read-out: IR IC50
T3 construct: human insulin receptor cytoplasmic domain (βIRCD); host or cells: baculovirus expression system
T3 sequence (P06213 980-1382 limits assumed): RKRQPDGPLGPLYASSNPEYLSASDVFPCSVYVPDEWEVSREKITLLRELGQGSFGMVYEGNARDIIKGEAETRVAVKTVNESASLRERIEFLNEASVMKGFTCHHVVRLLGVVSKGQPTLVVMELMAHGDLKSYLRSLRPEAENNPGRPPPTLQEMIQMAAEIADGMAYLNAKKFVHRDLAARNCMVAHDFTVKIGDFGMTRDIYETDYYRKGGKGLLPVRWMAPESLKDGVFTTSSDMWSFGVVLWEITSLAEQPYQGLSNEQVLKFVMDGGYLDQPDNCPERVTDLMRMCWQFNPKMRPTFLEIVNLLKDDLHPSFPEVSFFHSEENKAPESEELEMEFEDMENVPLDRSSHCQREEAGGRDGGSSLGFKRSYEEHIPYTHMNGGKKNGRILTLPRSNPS
Protocol: Example compounds were tested for their ability to inhibit the kinase activity of baculovirus-expressed human insulin receptor cytoplasmic domain (βIRCD) using the TRF assay as described above for ALK. Phosphorylation of the substrate, recombinant GST-PLC-γ, was detected with a europium-labeled anti-phosphotyrosine antibody and measured by TRF. Each 96-well plate (Greiner#655074) was coated with 100 μL/well of 20 μg/mL substrate solution in TBS. The IR assay mixture (total volume=100 μL/well) consisting of 20 mM HEPES (pH 7.2), 20 μM ATP, 5 mM MnCl2, 0.1% BSA, and test compound (diluted in DMSO; 2.5% DMSO final in assay) was added to the assay plates. Enzyme (20 ng/mL βIRCD) was added and the reaction was allowed to proceed at room temperature for 20 minutes. Detection of the phosphorylated product was performed by adding 100 μL/well of Eu—N1 labeled PY100 antibody (PerkinElmer#AD0160; diluted 1:10,000 in TBS-T containing 0.25% BSA). Incubation at 37° C. for 1 hour was followed by addition of 50 μL enhancement solution (Wallace#1244-105). Plates were agitated for 10 minutes and the fluorescence was measured using the PerkinElmer EnVision™ 2102 or 2104 multi-label plate reader.
as §1

[4] = target: T4, baculovirus-expressed JAK2 (Homo sapiens, UniProt O60674); assay: JAK2 Kinase Assay (TRF detection); assay type: biochemical; details: 0.2 μM ATP; average of two or more determinations; class symbols
T4 construct: host or cells: baculovirus expression system
T4 sequence (O60674 whole entry): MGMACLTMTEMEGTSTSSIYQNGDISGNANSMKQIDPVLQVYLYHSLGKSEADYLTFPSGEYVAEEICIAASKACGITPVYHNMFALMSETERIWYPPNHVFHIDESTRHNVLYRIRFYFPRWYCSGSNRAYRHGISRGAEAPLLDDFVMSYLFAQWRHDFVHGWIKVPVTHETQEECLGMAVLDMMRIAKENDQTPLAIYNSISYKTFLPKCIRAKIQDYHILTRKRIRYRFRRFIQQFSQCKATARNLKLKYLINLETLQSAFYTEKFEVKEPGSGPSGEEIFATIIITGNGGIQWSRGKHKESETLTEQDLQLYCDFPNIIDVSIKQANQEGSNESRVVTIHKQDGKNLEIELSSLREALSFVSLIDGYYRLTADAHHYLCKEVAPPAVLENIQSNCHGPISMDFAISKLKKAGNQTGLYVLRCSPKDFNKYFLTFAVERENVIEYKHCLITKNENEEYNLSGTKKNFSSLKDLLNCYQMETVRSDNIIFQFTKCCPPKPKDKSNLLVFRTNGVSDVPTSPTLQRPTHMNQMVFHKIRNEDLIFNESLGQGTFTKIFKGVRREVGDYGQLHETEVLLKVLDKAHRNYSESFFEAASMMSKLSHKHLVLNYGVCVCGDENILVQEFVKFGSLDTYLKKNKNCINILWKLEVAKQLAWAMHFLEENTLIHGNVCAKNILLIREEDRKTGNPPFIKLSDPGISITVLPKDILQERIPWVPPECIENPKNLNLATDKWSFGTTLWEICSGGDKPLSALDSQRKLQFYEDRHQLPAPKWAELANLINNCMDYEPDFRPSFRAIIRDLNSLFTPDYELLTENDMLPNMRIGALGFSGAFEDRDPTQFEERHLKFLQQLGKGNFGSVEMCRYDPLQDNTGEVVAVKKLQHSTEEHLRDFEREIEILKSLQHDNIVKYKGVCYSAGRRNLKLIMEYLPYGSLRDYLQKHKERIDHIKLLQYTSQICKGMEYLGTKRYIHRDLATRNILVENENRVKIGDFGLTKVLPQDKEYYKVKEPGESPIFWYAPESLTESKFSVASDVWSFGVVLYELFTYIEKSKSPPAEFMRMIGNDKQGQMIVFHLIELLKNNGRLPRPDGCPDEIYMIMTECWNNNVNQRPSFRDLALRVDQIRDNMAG
Protocol: Compounds were tested for their ability to inhibit the kinase activity of baculovirus-expressed JAK2 using the TRF detection system. IC50 runs were conducted in 96-well Costar high binding plates (Corning Costar #3922, Corning, N.Y.). The plates were coated first with 100 μL/well of 10 μg/mL Neutravidin (Pierce #31000, Rockford, Ill.) in TBS at 37° C. for 2 hours, followed by 100 μL/well of 1 μg/mL 15-mer peptide substrate (biotinyl-amino-hexanoyl-EQEDEPEGDYFEWLE-amide, Infinity Biotech Research and Resource, Aston, Pa.) at 37° C. for another hour. The JAK2 assay mixture (total volume=100 μL/well) consisting of 20 mM HEPES, pH 7.2, 0.2 μM ATP, 1 mM MnCl2, 0.1% BSA, and test compound (diluted in DMSO; 2.5% DMSO final in assay) was then added to the assay plate. Enzyme (15 ng/ml JAK2) was added and the reaction was allowed to proceed at room temperature for 20 minutes. Detection of the phosphorylated product was performed by adding 100 μL/well of Eu—N1 labeled PY100 antibody (PerkinElmer Life Sciences #AD0041, Boston, Mass.). Incubation at the room temperature then proceeded for 1 hour, followed by addition of 100 μl enhancement solution (PerkinElmer Life Sciences #1244-105, Boston, Mass.). The plate was gently agitated and after thirty minutes, the fluorescence of the resulting solution was measured using the PerkinElmer EnVision™ 2102 (or 2104) multi-label plate reader.
as §1

[5] = average of two or more determinations, class symbols

## CN1CCN(c2ccc3cc2/C=C\c2ccc(N(C)S(C)(=O)=O)c(c2)Nc2nc(ncc2Cl)N3)CC1 [Example 9, (14Z)-6-Chloro-10-(2-methanesulfonyl-methyl-amino)-17-(4-methylpiperazin-1-yl)-2,4,8,22-tetraazatetracyclo[14.3.1.1^3,7.1^9,13]docosa-1(20),3(22),4,6,9(21),10,12,14,16,18-decaene Trifluoroacetate (1:1)]
Recombinant human FAK; [5]
  IC50: < 10 nM
[1]; [5]
  IC50: 10 to 100 nM
[2]; from C=Cc1cc(Nc2ncc(Cl)c(Nc3cc(Br)ccc3N(C)S(C)(=O)=O)n2)ccc1N1CCN(C)CC1, Pd(OAc)2 / tri-o-tolylphosphine, Et3N, 65.0 mM, 2.75 h
  ring closure, yield of all isomers: 37%
[3]; given as numeric bound
  IC50: > 2000 nM
[4]
  IC50: < 10 nM

## Clc1cnc2nc1Nc1cccc(c1)/C=C\c1cc(ccc1OCCN1CCCC1)N2 [Example 22, (14Z)-6-Chloro-17-[2-(pyrrolidin-1-yl)ethoxy]-2,4,8,22-tetraazatetracyclo[14.3.1.1^3,7.1^9,13]docosa-1(20),3(22),4,6,9(21),10,12,14,16,18-decaene]
Recombinant human FAK; [5]
  IC50: 101 to 1000 nM
[1]; [5]
  IC50: 101 to 1000 nM
[3]; [5]
  IC50: 1000 to 10000 nM
[4]
  IC50: < 10 nM

## COc1ccc2cc1Nc1nc(ncc1Cl)Nc1ccc(N3CCOCC3)c(c1)CC2 [Example 21, 6-Chloro-10-methoxy-17-(morpholin-4-yl)-2,4,8,22-tetraazatetracyclo[14.3.1.1^3,7.1^9,13]docosa-1(20),3(22),4,6,9(21),10,12,16,18-nonaene Trifluoroacetate (1:1)]
Recombinant human FAK; [5]
  IC50: > 10000 nM
[1]; [5]
  IC50: > 10000 nM
[3]; [5]
  IC50: > 10000 nM
[4]
  IC50: < 10 nM

## COc1cc(C2CCN(C)CC2)c2cc1Nc1ncc(Cl)c(n1)Nc1cc(ccc1N(C)S(C)(=O)=O)CC2 [Example 8, 6-Chloro-10-(2-methanesulfonyl-methyl-amino)-17-(1-methyl-piperidin-4-yl)-19-methoxy-2,4,8,22-tetraazatetracyclo[14.3.1.1^3,7.1^9,13]docosa-1(20),3(22),4,6,9(21),10,12,16,18-nonaene Trifluoroacetate (1:1)]
Recombinant human FAK; [5]
  IC50: < 10 nM
[1]; [5]
  IC50: < 10 nM
[3]; [5]
  IC50: 101 to 1000 nM
[4]
  IC50: 101 to 1000 nM

## COc1cc(C2CCNCC2)c2cc1Nc1ncc(Cl)c(n1)Nc1cc(ccc1N(C)S(C)(=O)=O)CC2 [Example 28, 6-Chloro-10-(2-methanesulfonyl-methyl-amino)-17-(piperidin-4-yl)-19-methoxy-2,4,8,22-tetraazatetracyclo[14.3.1.1^3,7.1^9,13]docosa-1(20),3(22),4,6,9(21),10,12,16,18-nonaene Trifluoroacetate (1:1)]
Recombinant human FAK; [5]
  IC50: < 10 nM
[1]; [5]
  IC50: < 10 nM
[3]; [5]
  IC50: 101 to 1000 nM
[4]
  IC50: 10 to 100 nM

## CC(C)S(=O)(=O)c1ccc2cc1Nc1nc(ncc1Cl)Nc1ccc(N3CCN(C)CC3)c(c1)/C=C\2 [Example 11, (14Z)-6-Chloro-10-(propane-2-sulfonyl)-17-(4-methylpiperazin-1-yl)-2,4,8,22-tetraazatetracyclo[14.3.1.1^3,7.1^9,13]docosa-1(20),3(22),4,6,9(21),10,12,14,16,18-decaene Trifluoroacetate (1:1)]
Recombinant human FAK; [5]
  IC50: 10 to 100 nM
[1]; [5]
  IC50: 10 to 100 nM
[2]; from C=Cc1cc(Nc2ncc(Cl)c(Nc3cc(Br)ccc3S(=O)(=O)C(C)C)n2)ccc1N1CCN(C)CC1, Pd(OAc)2 / P(o-tolyl)3 / Et3N, 65.0 mM, 2.0 h
  ring closure, yield of all isomers: 32%
[3]; [5]
  IC50: 1000 to 10000 nM
[4]
  IC50: < 10 nM

## FC(F)(F)c1cnc2nc1Nc1cccc(c1)CCc1cccc(c1)N2 [Example 30, 6-Trifluoromethyl-2,4,8,22-tetraazatetracyclo[14.3.1.1^3,7.1^9,13]docosa-1(20),3(22),4,6,9(21),10,12,16,18-nonaene Trifluoroacetate (1:1)]
Recombinant human FAK; [5]
  IC50: 1000 to 10000 nM
[1]; given as numeric bound
  IC50: > 3000 nM
[4]
  IC50: 101 to 1000 nM

## Clc1cnc2nc1Nc1cccc(c1)/C=C\c1cc(ccc1N1CCOCC1)N2 [Example 24, (14Z)-6-Chloro-17-(morpholin-4-yl)-2,4,8,22-tetraazatetracyclo[14.3.1.1^3,7.1^9,13]docosa-1(20),3(22),4,6,9(21),10,12,14,16,18-decaene]
Recombinant human FAK; [5]
  IC50: > 10000 nM
[1]; given as numeric bound
  IC50: > 3000 nM
[3]; [5]
  IC50: > 10000 nM
[4]
  IC50: < 10 nM

## O[C@@H]1c2cccc(c2)Nc2nc(ncc2Cl)Nc2cccc(c2)[C@@H]1O [Example 26, (14R,15S)-6-chloro-2,4,8,22-tetraazatetracyclo[14.3.1.1^3,7.1^9,13]docosa-1(20),3(22),4,6,9(21),10,12,16,18-nonaene-14,15-diol]
Recombinant human FAK; given as numeric bound
  IC50: > 1000 nM
[1]; [5]
  IC50: 1000 to 10000 nM
[3]; given as numeric bound
  IC50: > 3000 nM
[4]
  IC50: < 10 nM

## COc1c2cc(c3c1CC[C@@H](N1CCOCC1)CC3)CCc1ccc(N(C)S(C)(=O)=O)c(c1)Nc1nc(ncc1Cl)N2 [Example 29, N-[(20S)-6-chloro-24-methoxy-20-(morpholin-4-yl)-2,4,8,27-tetraazapentacyclo[14.8.1.1^3,7.1^9,13.0^17,23]heptacosa-1(25),3(27),4,6,9(26),10,12,16,23-nonaen-10-yl]N-methylmethanesulfonamide]
Recombinant human FAK; [5]
  IC50: 10 to 100 nM
[1]; [5]
  IC50: 10 to 100 nM
[3]; given as numeric bound
  IC50: > 3000 nM
[4]
  IC50: 101 to 1000 nM

## COc1cc(N2CCN(C)CC2)c2cc1Nc1ncc(Cl)c(n1)Nc1cc(ccc1S(=O)(=O)C(C)C)/C=C\2
[2]; from C=Cc1ccc(S(=O)(=O)C(C)C)c(Nc2nc(Nc3cc(Br)c(N4CCN(C)CC4)cc3OC)ncc2Cl)c1, Pd(OAc)2 / tri-o-tolylphosphine, Et3N, 31.3 mM, 0.25 h
  ring closure, yield of all isomers: 63%

## Clc1cnc2nc1Nc1cccc(c1)CCc1cc(ccc1N1CCOCC1)N2 [Example 25, 6-Chloro-17-(morpholin-4-yl)-2,4,8,22-tetraazatetracyclo[14.3.1.1^3,7.1^9,13]docosa-1(20),3(22),4,6,9(21),10,12,16,18-nonaene]
Recombinant human FAK; [5]
  IC50: > 10000 nM
[1]; [5]
  IC50: > 10000 nM
[3]; [5]
  IC50: > 10000 nM
[4]
  IC50: < 10 nM
